US6352982B1, “4,1-benzoxazepines, their analogues, and their use as somatostatin agonists” (Takeda Chemical Industries, Ltd., priority 1997, dated 2002)
Where a name gives a salt, the structure may show the parent alone.

Test system: SD rats
Assay: Insulin secretion inhibition study using SD rats
Type: in vivo, rat
Procedure: In order to study the inhibitory effect of the compound of Example 5 on the insulin secretion after the stimulation by glucose, blood was withdrawn at various time intervals after the simultaneous intravenous administration of the compound of Example 5 and glucose. Serum insulin concentrations were determined by RIA.
Male rats of SD strain (8 weeks of age, n=3) were weighed and anesthetized by the intraperitoneal administration of 50 mg/kg of pentobarbital. As blood clotting inhibitor 30 mg of EDTA was dissolved in 300 μl of 50,000 units/ml Trasylol (Bayer) solution, and the solution was placed into Eppendorf blood collecting tubes each in quantity of […]. After fixing the rat on the rat fixing apparatus, the unilateral jugular vein was exposed and 100 μl of the blood was withdrawn from the vein by using a 25G injection needle. The test solution for the control group [without glucose] was saline containing 5% propylene glycol and 30% hydroxypropyl-β-cyclodextrin. The test solution for the control group [with glucose] was saline containing 5% propylene glycol, 30% hydroxypropyl-β-cyclodextrin, and 300 mg/kg/ml of glucose. […]
Plasma insulin concentrations were determined by RIA using the rat insulin [125I] assay system (Amersham). […] The radioactivity of the sediment was measured by gamma counter. […]

## NCc1cccc(C2OC(CC(=O)NCc3ccccc3F)C(=O)N(Cc3ccc(-c4ccccc4)cc3)c3ccc(Cl)cc32)c1 (stereo not drawn) [Example 5, 3,5-Trans-N-(2-fluorobenzyl)-5-(3-aminomethylphenyl)-1-(4-biphenylmethyl)-7-chloro-2-oxo-1,2,3,5-tetrahydro-4,1-benzoxazepine-3-acetamide•monohydrochloride]
Intravenous 0.003, 0.03, 0.3 or 3 mg/kg with glucose, male SD rats
  Elevation of the plasma insulin concentration after glucose: dose-dependently inhibited
Simultaneous intravenous administration with glucose, anesthetized male SD rats
  Dosage which inhibited the elevation of insulin concentration by 50%: about 0.03 mg/kg
